# Results reported in PMC11597048, “M2e-Derived Peptidyl and Peptide Amphiphile Micelles as Novel Influenza Vaccines” (Pharmaceuticals, 2024).
# Assays:
# [1] = Transmission electron microscopy of micelles; assay type: physicochemical; details: 20 μM peptide or PA with or without 2.22 μM Pam2CSK4 (90/10) in PBS, Nano-W negative stain
# Procedure: Solutions of 20 μM peptide or PA with or without 2.22 μM Pam2CSK4 were prepared in PBS from which 5 μL was pipetted onto a carbon-coated copper transmission electron microscopy (TEM) grid and incubated for 3–5 min before excess solution was wicked away using filter paper. Then, 5 μL Nano-W (2% methylamine tungstate) was pipetted on the grid and incubated for 3–5 min before being removed by wicking. Grids were imaged using a JEOL JEM-1400 Transmission Electron Microscope (Tokyo, Japan) at 15,000× and 25,000× magnification. Micrographs of peptide or PA were compared against reference micrographs of Nano-W with or without PBS to ensure proper identification of micellar structures.
# [2] = tested on: bone marrow-derived dendritic cells (BMDCs); test: BMDC cytokine secretion (sandwich ELISA of supernatant); assay type: cell-based, BALB/c mice; details: 24 h treatment, 0.2 μM Pam2CSK4, supernatant ELISA
# Procedure: Bone marrow was harvested from the femurs and tibias of 4-month-old BALB/c mice and red blood cells were lysed using ammonium-chloride-potassium (ACK) lysing buffer. Bone marrow cells were cultured in complete RPMI media (i.e., 10% FBS, 100 U/mL penicillin, 100 μg/mL streptomycin, and 50 μM β-mercaptoethanol) with 20 ng/mL granulocyte-macrophage colony-stimulating factor (GM-CSF) to promote differentiation into bone marrow-derived dendritic cells (BMDCs). After 10 days, BMDCs were plated in untreated 24-well plates and cultured with peptide or PA for 24 h. Supernatants were collected and stored at −20 °C for later use. BMDCs were harvested and processed for flow cytometry analysis. More specifically, cells were removed from the plate, blocked with Trustain FcX anti-mouse CD16/32 antibody (BioLegend), then stained with phycoerythrin-Cyaninine7 (PE-Cy7) anti-mouse CD11c (BioLegend), fluorescein isothiocyanate (FITC) anti-mouse CD40 (BioLegend), and allophycocyanin (APC) anti-mouse MHC II (BioLegend) before being fixed with 4% para-formaldehyde. Cells were analyzed on a BD LSR Fortessa Flow Cytometer (Franklin Lakes, NJ, USA) within 48 h after fixation. Events were gated according to the strategy shown in Figure S2, with viable samples having a “valid cells” gate of at least 45% of the total events. […]
substance,measurement,setting,value
Pam2CSK4,Micelle morphology (TEM),[1],mostly small spherical micelles
same,IL-12/IL-23 (p40) secretion,[2],higher production
same,TNF-α secretion,[2],higher production
